PMC8131842, “Therapeutic Potential of Vasoactive Intestinal Peptide and its Derivative Stearyl-Norleucine-VIP in Inflammation-Induced Osteolysis” (Frontiers in Pharmacology, 2021)

Key:
[1] = intravenously administered, 30 min after injection; ref Gozes et al., 1994; cited from earlier work
Excerpt: VIP and its derivative SNV have been previously studied for immunomodulation properties ([Abad et al., 2006]; [Goursaud et al., 2015]). Here we show the effect of each peptide on the cytokine profile of macrophages in response to LPS and in the osteolytic response to Ti particles using in vitro and in vivo mouse models. […] Furthermore, loading a single dose of SNV into a degradable memb ...

rats = assay: Study 001–2 acute intravenous toxicity in rats; type: in vivo, rat; conditions: for Necrotic reaction at the site of injection: vehicle group 2: 55%
Experimental: Toxicology. We performed toxicology studies for SNV that consisted of acute subcutaneous, intravenous and oral toxicity in rats, acute dermal toxicity in rabbits, skin sensitization using adjuvant and patch test in guinea pigs, and single and repeated (for 13 weeks) dose toxicity studies in rats. The latter was a 90-days repeated dose toxicity study, consisting of SNV once a day at three different doses to the penis and vagina of male and female rats, respectively. The compound was tested for the treatment of erectile dysfunction. The active dose (7 µg SNV) was chosen as the lowest dose for the study. The highest dosage group in the repeated dose toxicity study received 3,500 µg ([Gozes et al., 1994]). For study 001 (parts 1 through 3), the 1× dose consisted of 0.5 mg SNV dissolved in 7.1 ml vehicle (3.55 ml 10% Sefsol [glycerin monocaprylate] + 3.55 ml isopropanol) and 100µl/animal were administered; the 1000X dose consisted of 91 mg SNV dissolved in 1.3 ml vehicle (0.65 ml 10% Sefsol +0.65 ml isopropanol) and 100µl/animal were administered. For studies 002 through 004, the indicated doses of SNV (Table 1) were dissolved in 0.25 ml 10% Sefsol +0.25 ml 40% isopropanol (vehicle). The methodology for each of the toxicology studies is detailed in Table 1.

[2] = tested on: LPS-stimulated primary murine macrophages (IL1β, IL6 and TNFα expression); assay: Pro-inflammatory cytokine mRNA expression (RT-qPCR) in LPS-stimulated macrophage cultures; type: cell-based, mouse; conditions: 10^−6 M, added 1 h before LPS 1 μg/ml, 24 h, bone marrow-derived macrophages
Experimental: Cell culture. Primary bone marrow-derived macrophages (BMDMs) were isolated from the femora and tibiae of 10-week-old C57BL/6J mice (Envigo, Israel), as previously described ([Hiram-Bab et al., 2015]). Briefly, cells were cultured overnight at 37°C in a humidified atmosphere with 5% CO2 in our “standard medium” consisting of alpha-modified Eagle’s medium (αMEM, Life Science Technology, NY, United States) and 10% fetal bovine serum (FBS, Rhenium, Ltd., Modi’in, Israel). After 24 h, the non-adherent fraction was cultured in 10-cm non-culture-treated dishes containing standard medium and 100 ng/ml macrophage colony stimulating factor (M-CSF) ([Takeshita et al., 2000]). The resulting adherent BMDMs were collected after 3 days for the specific assays described below.
RNA isolation, and RT-qPCR. Following a 24 h incubation with Ti particles (or LPS/vehicle only/SNV/VIP in addition to Ti particles), macrophages were washed with sterile PBS, and RNA was extracted using Tri-RNA Reagent (Favorgen Biotech Corp, Kaohsiung, Taiwan). The 260/280 absorbance ratio was measured to verify the RNA purity and concentration. cDNA was produced using a high-capacity cDNA reverse transcription kit (Invitrogen, Grand Island, NY, United States), and real-time PCR was performed using Kapa SYBR Fast qPCR (Kapa Biosystems, Wilmington, MA, United States) on a StepOne real-time PCR machine (Applied Biosystems, Grand Island, NY, United States).
The following primers were used: F-[…] and R-[…] for mouse IL1β; F-[…] and R-[…] for mouse IL6; F-[…] and R-[…] for mouse TNFα; F-CCGTAACTGCACTGAAGA-AG and R-[…] for VPAC-1; F-CAGCAGACCAGGAAACAT-AA and R-GCCACACGCATCTATGAA for VPAC-2 and F-[…] and R-[…] for Gapdh. The reaction was subjected to 40 cycles of amplification using the following program: 95°C for 20 s, 60°C for 20 s, and 72°C for 25 s. The relative mRNA expression levels of the selected genes were normalized to the level of Gapdh.
IL1β, IL6 and TNFα are the main mediators of Ti particle-mediated inflammation and osteolysis ([Eger et al., 2017]; [Eger et al., 2018]). […]

[3] = tested on: histidine auxotrophs of Salmonella typhimurium; assay: Study 005 mutagenic potential (Ames test); type: cell-based
Experimental: Although, the studies were not carried out under Good Laboratory Practices (GLP) stipulations, SNV was synthesized under GLP conditions, and all the work was carried out at Tel Aviv University under meticulous conditions using professional staff and established methods (in a designated air-conditioned, clean room and specific luminary flow hood), which all strengthen the trustworthiness of the study results. Ames tests were carried out by Life Science Research Israel Ltd. Ness Ziona, Israel.

[4] = tested on: TiP-induced osteolysis on mouse calvaria; assay: TiP-induced osteolysis, mouse calvarial model (µCT); type: in vivo

Question: Which “Remaining intact SNV” value [1] does the source give for “Stearyl–HSDAVFTDNYTRLRKQ-Nle-AVKKYLNSILN-NH2 [SNV, Stearyl-norleucine-VIP, lipophilic VIP derivative with N-terminal stearic acid and norleucine in place of methionine at position 17]” here?
Answer: 10%

Question: What about the Mortality (rats; intravenous, 7 µg/rat (1×, group 3)) of the same substance?
Answer: 7 rats (3 males and 4 females) out of 12 died within 3 h after administration in group 4 (SNV -1000X). One rat died in group 2 within 5–24 h after administration. No mortality occurred in groups 1 and 3

Question: And the “Necrotic reaction at the site of injection” value (rats; intravenous, 7 µg/rat (group 3))?
Answer: 58%

Question: What about the “Necrotic reaction at the site of injection” value (rats; intravenous, 7 mg/rat (group 4)) of the same substance?
Answer: 100%

Question: What about the “Reactions: body weight” value (rats; intravenous, all groups, initial weight loss recovered during the study) of the same substance?
Answer: Necrotic reaction was observed at the site of injection in 55% group 2, 58% group 3 and 100% group 4. Most surviving rats displayed normal body weight, and some weight loss observed initially was recovered during the study

Question: What about the “Acute intravenous median lethal dose, male rats” value (rats; tail vein, S.D. rats, estimated) of the same substance?
Answer: 7 mg/male rat

Question: And the “Effect on TNFα expression vs LPS” value ([2]; n=5)?
Answer: no effect

Question: And the “Reduction of IL1β expression levels vs LPS” value ([2]; n=5, p < 0.05)?
Answer: 35%

Question: And the “Change of IL6 expression vs LPS” value ([2]; n=5, plus = increase)?
Answer: no effect

Question: And the “Revertant colony numbers over control” value ([3]; 0.3 to 312.5 µg/plate)?
Answer: No significant increases in revertant colony numbers over control with test material at doses ranging from 0.3 to 312.5 µg/plate

Question: And the “Mutagenic activity, conclusion” value ([3]; 0.3–312.5 µg/standard bacterial plate)?
Answer: Under the conditions of this study, the test material, SNV was devoid of mutagenic activity

Question: And the Calvaria thickness ([4]; 2 × 10^–8 mol SNV in fibrinogen-thrombin membrane with TiP, 5 weeks, µCT)?
Answer: no significant differences

Question: And the “Lowering of pit resorption volume (PRV) vs Ti” value ([4]; mouse, in vivo)?
Answer: 60%

Question: What about the “Lowering of pit resorption volume as percentage of the total tissue volume (PRV/TV) vs Ti” value ([4]; mouse, in vivo) of the same substance?
Answer: 60%
